Assay [1] concerns BMDM. In words: BMDM migration towards MCP-1 (xCelligence). Conditions: CoCl2-treated vs control macrophages. The assay is classed as cell-based, mouse. How it is done:
Macrophage chemotaxis was measured using the Real-Time Cell Invasion and Migration xCelligence Assay System with monitoring every 3 min (Roche Applied Science). BMDM migration towards MCP-1 (100 ng/ml; R&D Systems) was measured in the presence or absence of oxLDL (50 μg/ml) and/or recombinant rat UNC5b-Fc chimera (1006-UN; R&D Systems) to block the effects of netrin-1. In a subset of experiments, cells were pre-treated with 0.1 mmol/L CoCl2 for 1 h prior to migration. J774 macrophage migration was carried out in the presence or absence of UNC5b-Fc chimera. Results of chemotaxis assays are representative of at least three independent experiments performed on triplicate samples.

The test system of a further assay is BMDMs. The assay can be described thus: qPCR of Sema3e mRNA in macrophages. The note with it: BMDM, CoCl2. It counts as cell-based, mouse. How it is done:
Total RNA was isolated from cells using TRIzol Reagent (Invitrogen). RNA (1 μg) was reverse-transcribed with an iScript cDNA Synthesis kit according to the manufacturer's instructions (Bio-Rad). KAPA SYBR FAST qPCR Master Mix was used for RT-PCR analysis. Primers used are listed in supplemental Table I. The change in mRNA expression was calculated by the comparative change in cycle method (ΔΔCT). All data were normalized to GAPDH or 28S and were expressed as fold change over the control.
RAW264.7 cells were obtained from American Type Culture Collection. Peritoneal macrophages (pMø) were collected from mice by peritoneal lavage 4 d after intraperitoneal injection of 3% (wt/vol) thioglycollate as previously described (Kunjathoor, et al., J Biol Chem., 2002, 277:49982-49988). Bone marrow derived macrophages (BMDMs) were prepared from mice as previously described (Kunjathoor, et al., J Biol Chem., 2002, 277:49982-49988). For gene expression experiments, macrophages were plated at 1×10^6 cells/well in 6 well plates. CoCl2 (0.1M solution) was obtained from Sigma and used at the concentrations indicated to mimic hypoxia. Oxidation or acetylation of LDL (50 μg/mL; Biomedical Technologies) was performed as described (Kunjathoor, et al., J Biol Chem., 2002, 277:49982-49988). Recombinant IL-4 and IFN-γ were purchased from PeproTech. Ultrapure LPS from E. coli K12 was purchased from InvivoGen.
On the technique in general: Real-time PCR tracks product formation cycle by cycle.

Assay [2] concerns BMDM. The assay can be described thus: netrin-1 ELISA of BMDM supernatants. The assay is classed as cell-based, mouse. How it is done: (§1) Cell culture. Primary bone marrow derived macrophage (BMDM) was prepared by flushing the bone marrow of the tibia and femur of 6-8 week old C57/B6 mice. The cells were grown in DMEM supplemented with 15% L929-conditioned media, 10% FBS and 1% penicillin/streptomycin for 7 days. BMDM were stimulated 250 pM palmitate conjugated with BSA or BSA as a control for 24 hours, or TNFα (10 ng/ml, 410-MT-010; R&D systems), IL-6 (40 nglml, 406-ML-005; R&D systems) and IL-4 (1 Onglml, 404-ML-010; R&D systems) for 24 h. In some assays, differentiated BMDM were treated with conditioned media from 3T3-L1 adipocytes differentiated as described (Lin, et al., J Biol Chem, 2005; 280:4617-4626) and treated with 250 pM palmitate conjugated with BSA or BSA for 24 hours. In certain experiments, anti-TNFα (0.4 μg/ml, AF-410-NA, R&D systems) or anti-IL-6 (0.025 μg/ml, MAB406; R&D systems) blocking antibody or IgG control (Normal Goat IgG: AB-108-C, Rat IgG1: MAB005; R&D systems) was added to conditioned media. […]
ELISA assay. Insulin (90080; crystal Chem Inc), adiponectin (ab108785; Abeam), FFA (SFA-1; Zen Bio), TNFa (88-7064-76; ebiosciences) and netrin-1 (E91827Mu; USCN life science Inc) levels were measured in the serum using mouse standards according to manufacturer's guidelines. Netrin-1 in human serum was measured using a human-specific netrin-1 ELISA from USCN Life Science Inc (700176; mybiosource).

For a further assay, the system named is peritoneal macrophages. In words: Migration of palmitate-treated peritoneal macrophages to CCL19. It counts as cell-based, mouse. Conditions: treatment with palmitate. On the procedure:
as §1, with “media. Peritoneal macrophages were isolated as described (van Gils, et al., Nat Immunol, 2012; 13:136-143).” for “media.”
Migration. The migration of ATM or peritoneal macrophages to CCL19 (500 ng/ml; R&D Systems) was assessed by the xCelligence Real-time Cell Invasion and Migration system (ACEA biosciences Inc) that monitored chemotaxis every 5 minutes for over 6 h. […]

Assay [3] relates to human NTNI promoter-luciferase reporter. The assay can be described thus: NTN1 promoter-luciferase assay (Example 4). It counts as cell-based. The note with it: HEK293 cells. How it is done: (§2) Promoter-Luciferase assays. HEK293T cells were transfected with human NTNI or Unc5H2 promoter-luciferase reporter constructs (SwitchGear Genomics) using Lipofectamine™ 2000 (11668-019, Invitrogen) After transfection, media was changed and cells were treated with palmitate or BSA for 24 hours, in the presence or absence of the NFkB inhibitor BAY 11-7082 (10 μmol/L). Luciferase activity was measured using the DUAL-Glo Luciferase Assay system (E1910, Promega).

The test system of the next assay is 3T3L1 adipocytes. In words: qRT-PCR of 3T3L1 adipocytes. It counts as cell-based. Conditions: palmitate treatment. How it is done:
(§3) Real-time Quantitative RT-PCR Analysis RNA (0.5-1 μg) was reverse transcribed using iScript™ cDNA Synthesis Kit (Biorad) and RT-PCR analysis was conducted using kapa SYBR green Supermix (kappa syber) and a Mastercycler Realplex (Eppendorf) the primers used are listed. Fold change in mRNA expression was calculated using the comparative cycle method (ΔΔCt).
as §1

The subject of assay [4] is BMDM. The assay can be described thus: qRT-PCR of BMDM (palmitate, cytokines, adipocyte conditioned media). It counts as cell-based, mouse. The note with it: BMDMs, palmitate conjugated to BSA. On the procedure:
as §3
Cell culture. Primary bone marrow derived macrophage (BMDM) was prepared by flushing the bone marrow of the tibia and femur of 6-8 week old C57/B6 mice. The cells were grown in DMEM supplemented with 15% L929-conditioned media, 10% FBS and 1% penicillin/streptomycin for 7 days. BMDM were stimulated 250 pM palmitate conjugated with BSA or BSA as a control for 24 hours, or TNFα (10 ng/ml, 410-MT-010; R&D systems), IL-6 (40 nglml, 406-ML-005; R&D systems) and IL-4 (1 Onglml, 404-ML-010; R&D systems) for 24 h. In some assays, differentiated BMDM were treated with conditioned media from 3T3-L1 adipocytes differentiated as described (Lin, et al., J Biol Chem, 2005; 280:4617-4626) and treated with 250 pM palmitate conjugated with BSA or BSA for 24 hours. In certain experiments, anti-TNFα (0.4 μg/ml, AF-410-NA, R&D systems) or anti-IL-6 (0.025 μg/ml, MAB406; R&D systems) blocking antibody or IgG control (Normal Goat IgG: AB-108-C, Rat IgG1: MAB005; R&D systems) was added to conditioned media. Peritoneal macrophages were isolated as described (van Gils, et al., Nat Immunol, 2012; 13:136-143). Mice were injected intraperitoneally with 1 ml of 3% (wt/vol) thioglycolate to elicit sterile sterile peritonitis with macrophage numbers peaking on day 4. Cells were collected by lavage and used for migration assays.
Palmitate-BSA preparation. Sodium palmitate (P9767; Sigma Aldrich) was dissolved in sterile water in to make a 100-mM solution by alternating heating and vortexing until the palmitate was dissolved. Thu occurred once the solution reached 70 C. […]

In assay [5] the test system is human Unc5H2 promoter-luciferase reporter. The assay can be described thus: Unc5H2 promoter-luciferase assay (Example 4). It counts as cell-based. The note with it: HEK293 cells. How it is done: as §2

Take `[Cl][Co][Cl]` [CoCl2, Cobalt chloride]: in the assay with BMDM [1], the “ability of BMDM to migrate to MCP-1” value is listed as “strongly impaired”. The “macrophage Sema3e mRNA increase” value in the assay with BMDMs worked out at 5 fold.

For `CCCCCCCCCCCCCCCC(=O)[O-].[Na+]` [palmitate, Sodium palmitate], in the assay with BMDM [2], the “secretion of netrin-1 by BMDM (ELISA)” value is “induced secretion”. Besides, in the assay on peritoneal macrophages, the “migration of peritoneal macrophages to CCL19” value is “blocked the migration”. In addition, in assay [3], the “activity of Ntn1-promoter luciferase reporter” value is reported as “induced the activity”. For the same compound, the “Tnfa and Il6 mRNA in adipocytes” value in the assay on 3T3L1 adipocytes is reported as “induced expression”. Besides, in the assay on BMDM [4], the “increase in Ntn1 mRNA” value is 5 fold and the “increase in Unc5b mRNA” value amounted to 3 fold. In addition, the “activity of Unc5b-promoter luciferase reporter” value in assay [5] was “induced the activity”.

Source of the values: patent publication US20210113687A1, “METHODS FOR TREATING INFLAMMATION” (NEW YORK UNIVERSITY, priority 2013, published 2021).
